From US7235548B2, “Compounds and their use as positive AMPA receptor modulators” (NeuroSearch A/S, priority 1998, dated 2007) come the findings set out here.

In one assay the test system is AMPA receptor. The assay can be described thus: Voltage clamp (whole cell patch clamp), current induced by AMPA in cultured mouse neocortical neurons. The class given is cell-based. On the procedure:
Experiments were performed in voltage clamp using conventional whole cell patch clamp methods (Hamill et al., 1981), essentially as described previously (Mathiesen et al., 1998). The following salt solutions were used (mM): NaCl (140), KCl (4), CaCl2 (2), MgCl2 (1), Sucrose (30), Tetrodotoxin (0.0003), Bicuculline Methiodide (0.005) and HEPES (10, pH 7.4). Intracellular solution (mM): CsCl (120), CsF (20), MgCl2 (2), EGTA (10), HEPES (10, pH=7.2).
Mouse neocortical neurons were cultured essentially as described by Drejer et al. (1987). Briefly, the forebrains from embryonic (E17) NMRI mice were removed under sterile conditions. The tissue was chopped in 0.4 mm cubes and the triturated with trypsin (12.5 μg/ml) and DNAse (2.5 μg/ml), 15 min, 37° C. The cells were suspended at a concentration of 1×10^6 cells/ml in a slightly modified DMEM which contained horse serum (10% (v/v)), penicillin (333 U/ml), paraaminobenzoic acid (1 mg/ml), L-glutamine (0.5 mM), insulin (0.08 U/ml) and KCl (23.8 mM). The cell suspension was subsequently inoculated into poly-L-lysine coated 35 mm Petri dishes (2 ml/dish). Glass coverslips (3.5 mm) were placed in the dishes before coating. After 24 hr in culture, the medium was replaced by freshly made medium containing 1% N2 supplement instead of serum.
The cells were kept in culture for 7–14 days at 37° C. (5% CO2/95% O2) before experiments were carried out.
Electronics, programs and data acquisition: The amplifier used was the EPC-9 (HEKA-electronics, Lambrect, Germany) run by a Power Macintosh G3 computer via an ITC-16 interface. Experimental conditions were set with the Pulse-software accompanying the amplifier. Data were low pass filtered and sampled directly to hard-disk at a rate of 3 times the cut-off frequency.
Pipettes and electrodes: Pipettes were pulled from borosilicate glass (Modulohm, Copenhagen, Denmark) using a horizontal electrode puller (Zeitz-Instrumente, Augsburg, Germany). The pipette resistances were 1.7–2.4 MW in the salt solutions used in these experiments. The pipette electrode was a chloridized silver wire, and the reference was a silverchloride pellet electrode (In Vivo Metric, Healdsburg, USA) fixed to the experimental chamber. The electrodes were zeroed with the open pipette in the bath just prior to sealing.
Experimental procedure: Coverslips were transferred to a […] experimental chamber mounted on the stage of an inverted microscope (IMT-2, Olympus) supplied with Nomarski optics. The neurons were continuously superfused with extracellular saline at a rate of 2.5 ml/min. After giga-seal formation (1–5 GW, success-rate≈90%) the whole cell configuration was attained by suction.
The cells were held at a holding voltage of −60 mV and at the start of each experiment the current was continuously measured for at least 30 sec to ensure a stable leak current. AMPA-containing solutions were delivered to the chamber through a custom-made gravity-driven flowpipe, the tip of which was placed approximately 50 μm from the cell. Application was triggered when the tubing connected to the flow pipe was compressed by a valve controlled by the Pulse-software. AMPA (30 μM) was applied for 1 sec every 45 sec. After obtainment of responses of a repeatable amplitude the compound to be tested was included in both the chamber and in the AMPA-containing solution. The compound was present until responses of a new repeatable was obtained.
The sample interval in all experiments was 310 μsec.
All experiments were performed at room temperature (20–25° C.).

The next assay has as its system AMPA receptors. The experiment in a line: AMPA evoked single neuron spike activity in rat hippocampus (iontophoretic application of AMPA), in vivo. The following applies: 10 mg kg^−1 i.v. The source says:
Evaluation of the in vivo effects of positive AMPA modulators (PAMs) on the AMPA evoked spike activity in rat hippocampus. Hippocampal single neuron spike activity is strongly influenced by excitatory input, and iontophoretic application of AMPA induces spike activity in vivo in a dose-dependent manner ([…] et al. 1998). […] PAMs potentate AMPA receptor activation in vitro, and if this mechanism also operates in vivo, the i.v. injection of an PAM should enhance AMPA evoked spike activity. Thus, the aim of this study was to test the in vivo effect of a group of in vitro active PAMs. This have been done by studying their ability to enhances AMPA evoked spike activity after i.v. administration. Experiments were performed on male Wistar rats (M & B, Denmark) weighing 280-380 g, housed in two per cage with free access to food and water. […] Additional anaesthetic was given i.v. if the rat responded to a pinch of the back foot. The trachea was cannulated and the rats were placed in a stereotaxic frame and ventilated by a rodent ventilator (Ugo Basile, Comerio-Varese, Italy). Core body temperature was maintained at 37.5° C. by a DC heating pad. The left and dorsal part of the parietal bone was removed by craniotomy and the dura was withdrawn exposing the pia mater and underlying brain, covered with 0.9% NaCl. AMPA (Sigma, USA) was dissolved at 10 mM in 0.2 M NaCl. NMDA (Sigma, USA) was dissolved at 100 mM in 100 mM NaCl. Both solutions were adjusted to pH 7.5-8.0 with NaOH. COMPOUND 61 was dissolved in 200 mM CH3SO3^- Na^+ at a contration of 10 mM for iontophoretic application ([…]) and in isotonic glucose (278 mM) for i.v. administration. Cyclothiazide, COMPOUND 63, COMPOUND 56, COMPOUND 115 and COMPOUND 114 were all dissolved at in 5% chremophore solution at a concentration of 5 mg ml^-1. Evoked neuronal spike activity was analyzed on-line by a computer, saving single spikes and time of event. Neuronal spike activity (number of action potentials s^-1) was monitored on a pulse rate histogram together with indicators for AMPA, COMPOUND 61 and vehicle application. Extracellular recordings of single hippocampal neuron spikes were made with five-barrel glass microelectrodes (5B120F-6, World Precision Instruments Inc., Sarasota, Fla., USA) with a tip diameter of 10-12 μm. The individual barrels were filled with 5 M NaCl (recording), 400 mM NaCl (current balancing), 10 mM COMPOUND 61 in 200 mM CH3SO3^- Na^+ (pH 4.7), 200 mM CH3SO3^- Na^+ (pH 4.7, Vehicle), and the last barrel was filled with the AMPA. Experiments were performed on hippocampal neurons (A=5.5-6.5 mm, L=1.5-2.0 mm, H=2.0-3.0 mm, according to Paxinos & Watson, 1986). Neuronal spike activity was evoked by iontophoretic application of AMPA for periods of 10 to 15 s with 1.5 min intervals. Single neuron spike activity was amplified 5000 times with a bandwidth of 0.3 and 3 kHz (CyberAmp 320 with a Al 402 x50 smartprobe, Axon Instruments, California, USA). On-line and off-line analyses were performed by the Spike2 program with a 1401 plus interface (Cambridge Electronic Design Limited, England). The computer program also recorded mean arterial blood pressure and monitored and controlled iontophoretic application. AMPA was ejected into hippocampus in regular cycles of 100-105 s. […] Recording of neuronal spike activity was continued for at least 45 min after intravenous injection. The PAM reactivity was tested by microiontophoretic application of COMPOUND 61 (20 nA, FIG.).

For `O=S1(=O)NC(C2CCCCC2)Nc2ccc(S(=O)(=O)N3CCCCC3)cc21` (centres unmarked) [Compound 56, 3-Cyclohexyl-7-piperidinosulfonyl-1,2,3,4-tetrahydro-1,2,4-benzothiadiazine-1,1-dioxide], the “reversibility of the potentiation” value in the assay with AMPA receptor (after wash out of the compound) is “reversible”. The “persistence of the effect after wash out” value with AMPA receptor (compound 3 μM) was “persits for several minutes after wash out”. In addition, the “potentiation of the current induced by application of 30 μM AMPA” value in the assay with AMPA receptor (compound 3 μM, holding voltage −60 mV) is “potentiated”. Moreover, in the assay on AMPA receptors, the “onset of the enhancement after i.v. administration” value is given as “approximately 10 min”. Further, the “AMPA evoked spike activity” value in the assay with AMPA receptors (rat hippocampus) is reported as “enhancement”.
